Experimental data published in patent publication US11413278B2, “Compounds and methods for promoting stress resistance” (priority 2015, dated 2022).
Read-outs that look alike come from different tables or passages of the source.

What was measured:
[1] = tested on: WI-38 cells; experiment: CdCl2 (cadmium) resistance assay; assay type: cell-based, human; details: for fold induction at 10 µM: Homo sapiens, 12 h, normalized ATP measurement; for Assay 4: H2O2- & Cd-resistant / Assay 2: Cadmium-resistant: YES/NO; for Assay 2: Cadmium-resistant: * indicates partial
How it was run: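 WI-38 cells were given compounds at five final concentrations (0.25–20 μM) in triplicate, followed by cadmium or MMS for 12 h. For MMS, medium was switched from OptiMEM+10% FBS to serum-free DMEM+2% BSA when compounds were added, 24 h before stressor. Two independent assays were run, analysed by global variance t-test.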

[2] = tested on: C. elegans; experiment: C. elegans lifespan assays (liquid and plate); assay type: in vivo, Caenorhabditis elegans; details: for ILS at 60 µM / ILS at 66 µM: Caenorhabditis elegans
[3] = tested on: WI-38 cells; details: for Percentage of propidium iodide-positive dead cells (no H2O2 stress treatment), at 10 uM: negative control 0.41% ± 0.23%
Experimental: WI-38 cells were seeded on 384-well plates for 24 hrs and then incubated with small molecules for 24 hrs. […] Images were collected on an INCell Analyzer 2000 (GE) and analyzed with the Developer software.

[4] = tested on: FOXO3; experiment: FOXO3 siRNA knockdown: dependency for H2O2-resistance; assay type: cell-based, human
[5] = score in summary of 38 core set hits

**Q.** Which results are given for `COc1cccc(/C=C2\CN(C)C/C(=C\c3cccc(OC)c3OC)C2=O)c1OC` [O23]?
**A.** fold induction at 10 µM ([1]; Exp. 1, WI-38 cells, read-out: Exp. 1, under Cd2Cl2 stress treatment, at 10 uM (fold change)): 0.69; fold induction at 10 µM ([1]; Exp. 2, WI-38 cells, read-out: Exp. 2, under Cd2Cl2 stress treatment, at 10 uM (fold change)): 0.64; Assay 4: H2O2- & Cd-resistant [1]: YES; Assay 2: Cadmium-resistant [1]: YES; A = Cadmium resistant [1, 5]: 0; A = Cadmium resistant ([1]; summary score): 1; C = H2O2- & Cd-resistant ([1]; summary score): 1; ILS at 60 µM ([2]; 60 μM, in liquid, wild type, with FuDR, 1.0 × 10^9 bacteria/ml, read-out: relative change of mean lifespan vs control, Trial 1): 36.2%; ILS at 60 µM ([2]; 60 μM, in liquid, wild type, with FuDR, 2.5 × 10^9 bacteria/ml, read-out: relative change of mean lifespan vs control, Trial 2): 17.4%; ILS at 60 µM ([2]; 60 μM, on plate, CF512 temperature-sensitive sterile animals, without FuDR, 1.0 × 10^11 bacteria/ml, read-out: relative change of mean lifespan vs control, Trial 4): -0.3%; ILS at 60 µM ([2]; 60 μM, on plate, CF512 temperature-sensitive sterile animals, without FuDR, 2.0 × 10^10 bacteria/ml, read-out: relative change of mean lifespan vs control, Trial 3): 21.6%; ILS at 66 µM ([2]; Assay 2(z), at 66 uM, 1.0 × 10^9 bacteria/ml, wild type + FuDR (2012 July), read-out: Lifespan assay in liquid): 36.2%; ILS at 66 µM ([2]; Assay 3(aa), at 66 uM, 2.5 × 10^9 bacteria/ml, wild type + FuDR, read-out: Lifespan assay in liquid): 17.4%; ILS at 66 µM ([2]; Assay 4(ab), at 66 uM, 2.0 × 10^10 bacteria/ml, CF512 worms, no FuDR, read-out: Lifespan assay on plates): 21.6%; ILS at 66 µM ([2]; Assay 5(ac), at 66 uM, 1.0 × 10^11 bacteria/ml, CF512 worms, no FuDR, read-out: Lifespan assay on plates): -0.3%; Extension of C. elegans' lifespan (qualitative) ([2]; in at least 3 to 4 trials, group range ~10% to ~50%): could extend animal's lifespan; Trials with lifespan extension ([2]; positive of total trials): 3 of 4; O = Life span- extending scores in worms ([2]; score scale 0 to 2, 4 to 6 independent trials): 2 (2 for observed in more than 2 trials); M = Lifespan-extending scores in worms ([2]; summary score): 2 (2 for observed in more than 2 trials); PI cell-death imaging without H2O2 (indicating potential toxicity) ([3]; Assay 8(k), without H2O2, at 10 uM): YES; PI-positive dead cells under normal conditions ([3]; WI-38, no H2O2, control 0.4±0.2%): 2.6%±1.4%; Percentage of propidium iodide-positive dead cells (no H2O2 stress treatment), at 10 uM [3]: 2.61% ± 1.37%,; FOXO3-dependency for H2O2-resistance, at 10 uM (experiment 3) - with & without H2O2 ([4]; 10 uM, experiment 3, with & without H2O2): YES; FOXO3-dependency for H2O2-resistance (experiment 3) ([4]; 10 uM, with & without H2O2, FOXO3 knockdown in WI-38 cells, YES = resistance reduced by at least 50%, partial = 25% to 50%): YES; I = FOXO3-dependency for H2O2-resistance ([4]; score): 0; I = FOXO3-dependency for H2O2-resistance ([4]; summary score): 0

**Q.** Which CdCl2-resistant [1] does the source give for `Oc1ccccc1-c1noc(-c2ccccc2O)n1` [O27] here?
**A.** Its CdCl2-resistant is “YES”.

**Q.** And the “H2O2- & CdCl2-resistant” value [1]?
**A.** Its value is “YES”.

**Q.** What about the CdCl2-resistant ([1]; WI-38 cells, 10 μM) of the same compound?
**A.** Its CdCl2-resistant is “YES”.

**Q.** What about the “H2O2- & CdCl2-resistant” value ([1]; WI-38 cells, 10 μM, both stressors) of the same compound?
**A.** Its value is “YES”.

**Q.** What about the “Assay 4: H2O2- & Cd-resistant” value [1] of the same compound?
**A.** The value was “YES”.

**Q.** What about the “Assay 2: Cadmium-resistant” value [1] of the same compound?
**A.** The value was “YES”.

**Q.** And the “A = Cadmium resistant” value [1, 5]?
**A.** The value was 1.

**Q.** And the “A = Cadmium resistant” value ([1]; summary score)?
**A.** Its value is 1.

**Q.** And the “C = H2O2- & Cd-resistant” value ([1]; summary score)?
**A.** The value was 1.

**Q.** And the ILS at 66 µM ([2]; read-out: Lifespan assay on plates)?
**A.** Its ILS at 66 µM is -69.3%.

**Q.** And the ILS at 60 µM ([2]; read-out: relative change of mean lifespan vs control, Trial 1)?
**A.** The ILS at 60 µM was -35.1%.

**Q.** What about the ILS at 60 µM ([2]; read-out: relative change of mean lifespan vs control, Trial 2) of the same compound?
**A.** Its ILS at 60 µM is -17.8%.

**Q.** What about the ILS at 60 µM ([2]; read-out: relative change of mean lifespan vs control, Trial 3) of the same compound?
**A.** Its ILS at 60 µM is -69.3%.

**Q.** And the “M = Lifespan-extending scores in worms” value ([2]; in vivo)?
**A.** Its value is 0.

**Q.** And the “O = Life span- extending scores in worms” value ([2]; in vivo)?
**A.** The value was 0.

**Q.** What about the “Percentage of propidium iodide-positive dead cells (no H2O2 stress treatment), at 10 uM” value [3] of the same compound?
**A.** Its value is 0.50% ± 0.17%,.

**Q.** And the “I = FOXO3-dependency for H2O2-resistance” value ([4]; score)?
**A.** Its value is 0.

**Q.** And the “I = FOXO3-dependency for H2O2-resistance” value ([4]; summary score)?
**A.** Its value is 0.
